{
  "source": "patent US20040029823A1",
  "about": "“Antisense oligonucleotide compositions and methods for the modulation of JNK proteins” (priority 1997, published 2004)",
  "test_system": "JNK1 mRNA",
  "assay": "Northern assay of JNK1 mRNA expression in A549 cells",
  "assay_type": "cell-based, human",
  "details": "JNK1 mRNA, A549 cells, 400 nM oligonucleotide; for % EXPRESSION: relative to LIPOFECTIN-only control; for % INHIBITION: 100% - % expression",
  "procedure": "In order to evaluate the activity of potential JNK-modulating oligonucleotides, human lung carcinoma cell line A549 (American Type Culture Collection, Rockville, Md. No. ATCC CCL-185) cells or other cell lines as indicated in the Examples, were grown and treated with oligonucleotides or control solutions as detailed below. After harvesting, cellular extracts were prepared and examined for specific JNK mRNA levels or JNK protein levels (i.e., Northern or Western assays, respectively). In all cases, “% expression” refers to the amount of JNK-specific signal in an oligonucleotide-treated cell relative to an untreated cell (or a cell treated with a control solution that lacks oligonucleotide), and “% inhibition” is calculated as\n100%−% Expression =% Inhibition.\nNorthern Assays: The mRNA expression of each JNK protein was determined by using a nucleic acid probe specifically hybridizable thereto. Nucleic acid probes specific for JNK1, JNK2 and JNK3 are described in Examples 3, 4 and 5, respectively. The probes were radiolabelled by means well known in the art (see, e.g., Short Protocols in Molecular Biology, 2nd Ed., Ausubel et al., Eds., John Wiley & Sons, New York, 1992, pages 3-11 to 2-3-44 and 4-17 to 4-18; Ruth, Chapter 6 In: Methods in Molecular Biology, Vol. 26: Protocols for Oligonucleotide Conjugates, Agrawal, ed., Humana Press Inc., Totowa, N.J., 1994, pages 167-185; and Chapter 10 In: Molecular Cloning: A Laboratory Manual, 2nd Ed., Sambrook et al., Eds., pages 10.1-10.70). The blots were stripped and reprobed with a ^32P-labeled glyceraldehyde 3-phosphate dehydrogenase (G3PDH) probe (Clontech Laboratories, Inc., Palo Alto, Calif.) in order to confirm equal loading of RNA and to allow the levels of JNK transcripts to be normalized with regard to the G3PDH signals.\nA549 cells were grown in T-75 flasks until 80-90% confluent. At this time, the cells were washed twice with 10 mL of media (DMEM), followed by the addition of 5 mL of DMEM containing 20 μg/mL of LIPOFECTIN™ (i.e., 1:1 (w/w) DOTMA/DOPE, Life Technologies, Gaithersburg, Md.; DOTMA=N-[1-(2,3-dioleyoxy)propyl]-N,N,N-trimethylammonium chloride; DOPE=dioleoyl phosphatidylethanolamine). The oligonucleotides were added from a 10 μM stock solution to a final concentration of 400 nM, and the two solutions were mixed by swirling the flasks. As a control, cells were treated with LIPOFECTIN™ without oligonucleotide under the same conditions and for the same times as the oligonucleotide-treated samples. After 4 hours at 37° C., the medium was replaced with fresh DMEM containing 10% serum. The cells were allowed to recover for 18 hours. Total cellular RNA was then extracted in guanidinium, subject to gel electrophoresis and transferred to a filter according to techniques known in the art (see, e.g., Chapter 7 In: Molecular Cloning: A Laboratory Manual, 2nd Ed., Sambrook et al., Eds., pages 7.1-7.87, and Short Protocols in Molecular Biology, 2nd Ed., Ausubel et al., Eds., John Wiley & Sons, New York, 1992, pages 2-24 to 2-30 and 4-14 to 4-29). Filters were typically hybridized overnight to a probe specific for the particular JNK gene of interest in hybridization buffer (25 mM KPO4, pH 7.4; 5×SSC; 5× Denhardt's solution, 100 μg/ml Salmon sperm DNA and 50% formamide) (Alahari et al., Nucl. Acids Res., 1993, 21, 4079). This was followed by two washes with 1×SSC, 0.1% SDS and two washes with 0.25×SSC, 0.1% SDS. Hybridizing bands were visualized by exposure to X-OMAT AR film and quantitated using a PHOSPHORIMAGER™ essentially according to the manufacturer's instructions (Molecular Dynamics, Sunnyvale, Calif.)\nB. JNK1-specific probes: In initial screenings of a set of oligonucleotides derived from the JNK1 sequence (Table 2) for biological activity, a cDNA clone of JNK1 (Derijard et al., Cell, 1994, 76, 1025) was radiolabeled and used as a JNK1-specific probe in Northern blots. […]",
  "data": [
    {"substance": "11978 (antisense ATTCTTTCCACTCTTCTATT; DNA, all phosphorothioate, methylation of C not given here) [compound 11978]", "values": [
      {"measurement": "% EXPRESSION", "result": 85, "unit": "%"},
      {"measurement": "% INHIBITION", "result": 15, "unit": "%"}
    ]},
    {"substance": "11979 (antisense CTCCTCCAAGTCCATAACTT; DNA, all phosphorothioate, methylation of C not given here) [compound 11979]", "values": [
      {"measurement": "% EXPRESSION", "result": 90, "unit": "%"},
      {"measurement": "% INHIBITION", "result": 10, "unit": "%"}
    ]},
    {"substance": "11980 (antisense CCCGTATAACTCCATTCTTG; DNA, all phosphorothioate, methylation of C not given here) [compound 11980]", "values": [
      {"measurement": "% EXPRESSION", "result": 85, "unit": "%"},
      {"measurement": "% INHIBITION", "result": 15, "unit": "%"}
    ]},
    {"substance": "11981 (antisense CTGTGCTAAAGGAGAGGGCT; DNA, all phosphorothioate, methylation of C not given here) [compound 11981]", "values": [
      {"measurement": "% EXPRESSION", "result": 62, "unit": "%"},
      {"measurement": "% INHIBITION", "result": 28, "unit": "%"}
    ]},
    {"substance": "11982 (antisense ATGATGGATGCTGAGAGCCA; DNA, all phosphorothioate, methylation of C not given here) [compound 11982]", "values": [
      {"measurement": "% EXPRESSION", "result": 13, "unit": "%"}
    ]},
    {"substance": "11983 (antisense GTTGACATTGAAGACACATC; DNA, all phosphorothioate, methylation of C not given here) [compound 11983]", "values": [
      {"measurement": "% EXPRESSION", "result": 40, "unit": "%"}
    ]},
    {"substance": "11984 (antisense CTGTATCAGAGGCCAAAGTC; DNA, all phosphorothioate, methylation of C not given here) [compound 11984]", "values": [
      {"measurement": "% EXPRESSION", "result": 53, "unit": "%"},
      {"measurement": "% INHIBITION", "result": 47, "unit": "%"}
    ]},
    {"substance": "11985 (antisense TGCTGCTTCTAGACTGCTGT; DNA, all phosphorothioate, methylation of C not given here) [compound 11985]", "values": [
      {"measurement": "% EXPRESSION", "result": 47, "unit": "%"}
    ]},
    {"substance": "11986 (antisense AGTCATCTACAGCAGCCCAG; DNA, all phosphorothioate, methylation of C not given here) [compound 11986]", "values": [
      {"measurement": "% EXPRESSION", "result": 90, "unit": "%"},
      {"measurement": "% INHIBITION", "result": 10, "unit": "%"}
    ]},
    {"substance": "11987 (antisense CCATCCCTCCCACCCCCCGA; DNA, all phosphorothioate, methylation of C not given here) [compound 11987]", "values": [
      {"measurement": "% EXPRESSION", "result": 47, "unit": "%"}
    ]},
    {"substance": "11988 (antisense ATCAATGACTAACCGACTCC; DNA, all phosphorothioate, methylation of C not given here) [compound 11988]", "values": [
      {"measurement": "% EXPRESSION", "result": 78, "unit": "%"},
      {"measurement": "% INHIBITION", "result": 22, "unit": "%"}
    ]},
    {"substance": "11989 (antisense CAAAAATAAGACCACTGAAT; DNA, all phosphorothioate, methylation of C not given here) [compound 11989]", "values": [
      {"measurement": "% EXPRESSION", "result": 60, "unit": "%"},
      {"measurement": "% INHIBITION", "result": 40, "unit": "%"}
    ]},
    {"substance": "12463 (antisense CACGCTTGCTTCTGCTCATG; DNA, all phosphorothioate, methylation of C not given here) [compound 12463]", "values": [
      {"measurement": "% EXPRESSION", "result": 23, "unit": "%"}
    ]},
    {"substance": "12464 (antisense CGGCTTAGCTTCTTGATTGC; DNA, all phosphorothioate, methylation of C not given here) [compound 12464]", "values": [
      {"measurement": "% EXPRESSION", "result": 18, "unit": "%"}
    ]},
    {"substance": "12538 (antisense CCCGCTTGGCATGAGTCTGA; chemistry not fully specified) [compound 12538]", "values": [
      {"measurement": "% EXPRESSION", "result": 33, "unit": "%"}
    ]},
    {"substance": "12548 (antisense ATTTGCATCCATGAGCTCCA; DNA, all phosphorothioate, methylation of C not given here) [compound 12548]", "values": [
      {"measurement": "% EXPRESSION", "result": 5, "unit": "%"}
    ]},
    {"substance": "12549 (antisense CGTTCCTGCAGTCCTGGCCA; DNA, all phosphorothioate, methylation of C not given here) [compound 12549]", "values": [
      {"measurement": "% EXPRESSION", "result": 28, "unit": "%"}
    ]},
    {"substance": "12550 (antisense GGATGACCTCGGGTGCTCTG; DNA, all phosphorothioate, methylation of C not given here) [compound 12550]", "values": [
      {"measurement": "% EXPRESSION", "result": 40, "unit": "%"}
    ]},
    {"substance": "12551 (antisense CCCATAATGCACCCCACAGA; DNA, all phosphorothioate, methylation of C not given here) [compound 12551]", "values": [
      {"measurement": "% EXPRESSION", "result": 52, "unit": "%"},
      {"measurement": "% INHIBITION", "result": 48, "unit": "%"}
    ]}
  ]
}
